One data set has as its system carrageenin-induced oedema. Description: Localised carrageenin-induced oedema method (anti-inflammatory action). The format is in vivo, rat. The conditions noted are these: 50 mg/kg oral, 1st hour. On the procedure:
a. Localised carrageenin-induced oedema method
A 1% solution of carrageenin (0.1 ml) is injected into the metatarsal flexor muscles of the right hand rear paw of the rat at time "0".
The animals of the treated group also receive, by the oral route, 100 mg/kg of the compound to be tested, respectively 1 hour before and at the same time as the injection of the phlogogenic agent, then 1 hour and 21/2 hours after. The measurements made with the aid of a micrometer at the time "0" and 1 hour, 2 hours, 3 hours and 5 hours after the administration of the carrageenin, enable one to determine, in relation to time, the percentage of anti-inflammatory activity in relation to the control group.
a. method of localised carrageenin-induced oedema
The oral administration of […] of the derivatives to be tested produces a clear reduction of the inflammatory reaction provoked.
In the case of `Clc1ccccc1N1CCN(CC=C2CN=C(NC3CCCCC3)S2)CC1` [Derivative No. 37, 5-[4-β-(orthochlorophenyl)piperazinoethylidene]2-cyclohexylamino Δ^2-thiazoline], the “reduction of the inflammatory reaction, 1st hour” value is listed as 38.
Consider `COc1ccc(N2CCN(CC=C3CN=C(NC4CCCCC4)S3)CC2)cc1` [Derivative No. 38, 2-cyclohexylamino 5-[4-β-(paramethoxyphenyl)piperazinoethylidene] Δ^2-thiazoline], for which the “reduction of the inflammatory reaction, 1st hour” value amounted to 49.

The same data set, now with this note: 50 mg/kg oral, 2nd hour.
Consider `Clc1ccccc1N1CCN(CC=C2CN=C(NC3CCCCC3)S2)CC1` [Derivative No. 37, 5-[4-β-(orthochlorophenyl)piperazinoethylidene]2-cyclohexylamino Δ^2-thiazoline], for which the “reduction of the inflammatory reaction, 2nd hour” value was 43.
As for `COc1ccc(N2CCN(CC=C3CN=C(NC4CCCCC4)S3)CC2)cc1` [Derivative No. 38, 2-cyclohexylamino 5-[4-β-(paramethoxyphenyl)piperazinoethylidene] Δ^2-thiazoline], the “reduction of the inflammatory reaction, 2nd hour” value amounted to 53.

The same data set, now with this note: 50 mg/kg oral, 3rd hour.
As for `Clc1ccccc1N1CCN(CC=C2CN=C(NC3CCCCC3)S2)CC1` [Derivative No. 37, 5-[4-β-(orthochlorophenyl)piperazinoethylidene]2-cyclohexylamino Δ^2-thiazoline], the “reduction of the inflammatory reaction, 3rd hour” value is listed as 48.
Turning to `COc1ccc(N2CCN(CC=C3CN=C(NC4CCCCC4)S3)CC2)cc1` [Derivative No. 38, 2-cyclohexylamino 5-[4-β-(paramethoxyphenyl)piperazinoethylidene] Δ^2-thiazoline], the “reduction of the inflammatory reaction, 3rd hour” value is listed as 56.

The same data set, now with this note: 50 mg/kg oral, 4th hour.
Turning to `Clc1ccccc1N1CCN(CC=C2CN=C(NC3CCCCC3)S2)CC1` [Derivative No. 37, 5-[4-β-(orthochlorophenyl)piperazinoethylidene]2-cyclohexylamino Δ^2-thiazoline], the “reduction of the inflammatory reaction, 4th hour” value is listed as 52.
Regarding `COc1ccc(N2CCN(CC=C3CN=C(NC4CCCCC4)S3)CC2)cc1` [Derivative No. 38, 2-cyclohexylamino 5-[4-β-(paramethoxyphenyl)piperazinoethylidene] Δ^2-thiazoline], the “reduction of the inflammatory reaction, 4th hour” value is given as 60.

Still in this data set, the particulars now being: 50 mg/kg oral, 5th hour.
For `Clc1ccccc1N1CCN(CC=C2CN=C(NC3CCCCC3)S2)CC1` [Derivative No. 37, 5-[4-β-(orthochlorophenyl)piperazinoethylidene]2-cyclohexylamino Δ^2-thiazoline], the “reduction of the inflammatory reaction, 5th hour” value worked out at 57.
On the same count and under the same terms, with `COc1ccc(N2CCN(CC=C3CN=C(NC4CCCCC4)S3)CC2)cc1` [Derivative No. 38, 2-cyclohexylamino 5-[4-β-(paramethoxyphenyl)piperazinoethylidene] Δ^2-thiazoline] the figure was 61.

Staying with this data set, now noted: 100 mg/kg oral per administration, rat, 1 hour after carrageenin.
Consider `CCN(CC)CCC1CN=C(NC2CCCCC2)S1` (stereo not drawn) [Derivative No. 3, 2-cyclohexlamino 5-β-diethylaminoethyl Δ^2-thiazoline], for which the “percentage of anti-inflammatory activity, First Hour” value was 37%.

Staying with this data set, now noted: 100 mg/kg oral per administration, rat, 2 hours after carrageenin.
Turning to `CCN(CC)CCC1CN=C(NC2CCCCC2)S1` (stereo not drawn) [Derivative No. 3, 2-cyclohexlamino 5-β-diethylaminoethyl Δ^2-thiazoline], the “percentage of anti-inflammatory activity, Second Hour” value was found to be 39%.

The same data set, now with this note: 100 mg/kg oral per administration, rat, 3 hours after carrageenin.
For `CCN(CC)CCC1CN=C(NC2CCCCC2)S1` (stereo not drawn) [Derivative No. 3, 2-cyclohexlamino 5-β-diethylaminoethyl Δ^2-thiazoline], the “percentage of anti-inflammatory activity, Third Hour” value was found to be 46%.

The data set is the same for the next values; noted with them: 100 mg/kg oral per administration, rat, 5 hours after carrageenin.
With `CCN(CC)CCC1CN=C(NC2CCCCC2)S1` (stereo not drawn) [Derivative No. 3, 2-cyclohexlamino 5-β-diethylaminoethyl Δ^2-thiazoline], the “percentage of anti-inflammatory activity, Fifth Hour” value was found to be 48%.

System in another data set: not listed separately
The data set is described as follows: Triton test (hypocholesterolemic action). Type of data set: in vivo, rat. The conditions noted are these: 50 mg/kg oral. On the procedure:
The intravenous injection of Triton W-R 1339 (an alkylaryl polyetheralcohol sold by Rohm and Haas) enables one to artifically increase, in the rat, certain lipidic fractions of serum and thus to evalute the hypocholesterolemic action of the compounds of the invention. […]
Eighteen hours later a blood sample is taken and the β-lipoproteins, the free cholesterol and the cholesterol are determined.
This test, which enables one to evaluate the hypocholesterolemic action of the derivatives to be tested, on serum levels of certain lipid fractions, has shown the remarkable effect of the compounds according to the invention.
For the compound `Clc1ccccc1N1CCN(CC=C2CN=C(NC3CCCCC3)S2)CC1` [Derivative No. 37, 5-[4-β-(orthochlorophenyl)piperazinoethylidene]2-cyclohexylamino Δ^2-thiazoline], the “reduction of free cholesterol and total cholesterol levels” value is about 41%.
Same read-out and setting: for `COc1ccc(N2CCN(CC=C3CN=C(NC4CCCCC4)S3)CC2)cc1` [Derivative No. 38, 2-cyclohexylamino 5-[4-β-(paramethoxyphenyl)piperazinoethylidene] Δ^2-thiazoline] the value was about 44%.

System in the next data set: not listed separately
The data set is described as follows: LD50/24 hours by the method of Miller & Tainter, intravenous route (derivatives 34 to 38, species not restated). The conditions noted are these: in vivo, read-out: LD50 /24 hours /kg of body weight.
Regarding `Clc1ccccc1N1CCN(CC=C2CN=C(NC3CCCCC3)S2)CC1` [Derivative No. 37, 5-[4-β-(orthochlorophenyl)piperazinoethylidene]2-cyclohexylamino Δ^2-thiazoline], the LD50 at 24 h worked out at 57 mg/kg.
`COc1ccc(N2CCN(CC=C3CN=C(NC4CCCCC4)S3)CC2)cc1` [Derivative No. 38, 2-cyclohexylamino 5-[4-β-(paramethoxyphenyl)piperazinoethylidene] Δ^2-thiazoline]: the LD50 at 24 h was found to be 52 mg/kg.

Another data set has as its system ovalbumin-induced oedema. The data set is described as follows: Generalised ovalbumin-induced oedema method (anti-inflammatory action). The format is in vivo, rats. The conditions noted are these: 50 mg/kg oral, 1st hour. On the procedure: b. Generalised ovalbumin-induced oedema method
A simultaneous intraperitoneal injection of 1 ml of ovalbumin and of 0.5 ml of an aqueous solution of Evans Blue at 1 ml per thousand by weight is administered to rats.
For comparative purposes, 100 mg of the compound to be tested is administered orally to the animals of the group to be treated, 1 hour before and at the same time as the ovalbumin. The intensity of the phenomenon thus provoked in noted by a FIG. 1 to 5 according to the intensity of the inflammatory syndrome.
Thus one determines the average of the oedematic intensity and the percentage of decrease of the oedematic reaction in relation to the control animals.
b. method of generalised ovalbumin-induced oedema
The percentages of reduction of oedematic reaction, in the test animals, in subjects treated by the oral route by the administration of […] of the compound to be tested show the clear anti-inflammatory action of the compounds according to the invention.
Turning to `Clc1ccccc1N1CCN(CC=C2CN=C(NC3CCCCC3)S2)CC1` [Derivative No. 37, 5-[4-β-(orthochlorophenyl)piperazinoethylidene]2-cyclohexylamino Δ^2-thiazoline], the “percentage of reduction of oedematic reaction, 1st hour” value is reported as 60%.
For the compound `COc1ccc(N2CCN(CC=C3CN=C(NC4CCCCC4)S3)CC2)cc1` [Derivative No. 38, 2-cyclohexylamino 5-[4-β-(paramethoxyphenyl)piperazinoethylidene] Δ^2-thiazoline], the “percentage of reduction of oedematic reaction, 1st hour” value amounted to 64%.

Staying with this data set, now noted: 50 mg/kg oral, 2nd hour.
As to `Clc1ccccc1N1CCN(CC=C2CN=C(NC3CCCCC3)S2)CC1` [Derivative No. 37, 5-[4-β-(orthochlorophenyl)piperazinoethylidene]2-cyclohexylamino Δ^2-thiazoline], the “percentage of reduction of oedematic reaction, 2nd hour” value is given as 68%.
Still for that read-out and setting: with `COc1ccc(N2CCN(CC=C3CN=C(NC4CCCCC4)S3)CC2)cc1` [Derivative No. 38, 2-cyclohexylamino 5-[4-β-(paramethoxyphenyl)piperazinoethylidene] Δ^2-thiazoline] the figure was 70%.

The data set is the same for the next values; noted with them: 100 mg oral, rats, second hour.
With `CCN(CC)CCC1CN=C(NC2CCCCC2)S1` (stereo not drawn) [Derivative No. 3, 2-cyclohexlamino 5-β-diethylaminoethyl Δ^2-thiazoline], the “percentage of decrease of the oedematic reaction, Second Hour” value amounted to 54%.

Staying with this data set, now noted: 100 mg oral, rats, third hour.
As for `CCN(CC)CCC1CN=C(NC2CCCCC2)S1` (stereo not drawn) [Derivative No. 3, 2-cyclohexlamino 5-β-diethylaminoethyl Δ^2-thiazoline], the “percentage of decrease of the oedematic reaction, Third Hour” value worked out at 60%.

System in another data set: not listed separately
Description: Propyl-thiouracil test (hypocholesterolemic action). The format is in vivo, rats. The conditions noted are these: 50 mg/kg; control 0.25. Here is the method: a. Propyl-thiouracil test (RANNEY et Coll. J. Pharmacol. Exper. Therap. 1963, 142, 132-136)
The administration of propyl-thiouracil to adult rats renders them hypercholesterolemic; in effect, the plasmatic cholesterol rate has increased by about 15%. The testing is carried out on two groups of rats, the control group receiving the propyl-thiouracil only whilst the treated group also receives 100 mg/kg of the compounds to be tested, by the oral route.
On the 11th day of the experiment, the blood samples are taken and the β-lipoproteins, the free cholesterol and the total cholesterol measured.
a. Propyl-thiouracil test (Ranney et Coll. J. Pharmacol. Exper. Therap. 1963, 142, 132-136)
This test has shown the clearly favourable action of the derivatives according to the invention, at a dose of […].
As for `Clc1ccccc1N1CCN(CC=C2CN=C(NC3CCCCC3)S2)CC1` [Derivative No. 37, 5-[4-β-(orthochlorophenyl)piperazinoethylidene]2-cyclohexylamino Δ^2-thiazoline], the Free cholesterol was determined as 0.10.
Consider `COc1ccc(N2CCN(CC=C3CN=C(NC4CCCCC4)S3)CC2)cc1` [Derivative No. 38, 2-cyclohexylamino 5-[4-β-(paramethoxyphenyl)piperazinoethylidene] Δ^2-thiazoline], for which the Free cholesterol is 0.09 g/L.

The same data set, now with this note: 50 mg/kg; control 0.89.
`Clc1ccccc1N1CCN(CC=C2CN=C(NC3CCCCC3)S2)CC1` [Derivative No. 37, 5-[4-β-(orthochlorophenyl)piperazinoethylidene]2-cyclohexylamino Δ^2-thiazoline] registered a Total cholesterol of 0.60.
`COc1ccc(N2CCN(CC=C3CN=C(NC4CCCCC4)S3)CC2)cc1` [Derivative No. 38, 2-cyclohexylamino 5-[4-β-(paramethoxyphenyl)piperazinoethylidene] Δ^2-thiazoline]: the Total cholesterol was found to be 0.58.

The values are drawn from US4018786A, “2-Aminothiazolines and a process for preparation thereof” (Centre d'Etudes pour l'Industrie Pharmaceutique, priority 1974, dated 1977).
